# Columns and labels:
# [1] = system: MOLM13; assay: MTS assay for cell growth/viability, MOLM13; format: cell-based; settings: Homo sapiens, MOLM-13, 96 hours
# Procedure: (§1) MTS assay for cell growth/viability: Mitochondrial activity was measured to determine cell proliferation using an MTS assay ([…]). Metabolically active cells convert MTS tetrazolium salt into a purple formazan product that is soluble in tissue culture medium. The amount of formazan measured at 490 nm absorbance is proportional to the number of proliferating cells. MTS assays in AML cell lines were carried out with 20K cells plated per well in 96-well plates with Cpd3 or brequinar in a dose series ranging from 0.0001 to 10 μM. Triplicate wells were set up for each condition. At 96 hours, the MTS reagent was added and after approximately 4 hours the plates were read in a spectrophotometer.
# (§2) Biological Activity. Cell proliferation assays were carried out using the MTS assay described herein using two AML cell lines (i.e., MOLM13 and OCI-AML3) with varied genetic backgrounds. The assays were carried out in a blinded fashion.
# [2] = molecular target: T1, recombinant human DHODH (Homo sapiens, UniProt Q02127); assay: DHODH enzymatic assay (DCIP reduction); format: biochemical; settings: recombinant human enzyme, 25° C.; read-out: h-DHODH IC50
# T1 construct: made in house
# T1 sequence (Q02127 whole entry): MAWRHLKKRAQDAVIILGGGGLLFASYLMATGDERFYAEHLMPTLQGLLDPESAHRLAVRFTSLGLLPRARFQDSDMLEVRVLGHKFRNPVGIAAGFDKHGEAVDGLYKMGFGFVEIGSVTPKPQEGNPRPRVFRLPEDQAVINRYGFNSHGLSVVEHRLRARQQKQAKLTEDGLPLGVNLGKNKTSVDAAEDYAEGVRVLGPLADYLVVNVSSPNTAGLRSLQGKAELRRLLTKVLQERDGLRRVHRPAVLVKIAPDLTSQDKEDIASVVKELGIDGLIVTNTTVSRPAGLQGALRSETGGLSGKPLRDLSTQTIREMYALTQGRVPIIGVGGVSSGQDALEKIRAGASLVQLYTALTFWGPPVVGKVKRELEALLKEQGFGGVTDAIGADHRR
# Procedure: DHODH Enzymatic Assay: DHODH activity was determined at 25° C. following the reduction of 2,6-dichloroindophenol sodium salt (DCIP) at 600 nm (ε=18 800 M^−1 cm^−1) on a spectrophotometer. The reaction medium used contained 50 mM Tris-HCl, pH 8.0, 0.1% Triton X-100, 0.1 mM LDHO, 0.025 mM CoQ1, and 0.06 mM DCIP. The reaction was started by addition of the enzyme. The inhibitory potency of the compounds was evaluated by measuring the initial velocity of the reaction either in the absence or in the presence of the compounds at the indicated concentrations. The DHODH enzyme used was the recombinant human enzyme prepared as previously described (Hëlène Munier-Lehmann, et al., J. Med. Chem. 2015, 58:860-877).
# [3] = system: OCI-AML3; assay: MTS assay for cell growth/viability, OCI-AML3; format: cell-based; settings: Homo sapiens, OCI-AML-3, 96 hours
# Procedure: as §1, §2
Compound,IC50 [1] [µM],IC50 [2] [µM],IC50 [3] [µM]
"CCOc1ccc(-c2ccc(-c3cc(C(=O)O)c4cc(F)ccc4n3)cn2)cc1 [Cpd1, 2-(6-(4-ethoxyphenyl)pyridin-3-yl)-6-fluoroquinoline-4-carboxylic acid]",5.35,0.628,4.32
"CCOc1ccc(-c2ccc(-c3cc(C(=O)O)c4cc(F)ccc4n3)nc2)cc1 [Cpd2, 2-(5-(4-ethoxyphenyl)pyridin-2-yl)-6-fluoroquinoline-4-carboxylic acid]",0.571,0.317,0.709
"CCOc1ccc(-c2cnc(-c3cc(C(=O)O)c4cc(F)ccc4n3)nc2)cc1 [Cpd3, 2-(5-(4-ethoxyphenyl)pyrimidin-2-yl)-6-fluoroquinoline-4-carboxylic acid]",–,–,3.64
"CCOc1ccc(-c2cnc(-c3cc(C(=O)O)c4cc(F)ccc4n3)cn2)cc1 [Cpd4, 2-(5-(4-ethoxyphenyl)pyrazin-2-yl)-6-fluoroquinoline-4-carboxylic acid]",–,0.5,2.1
"CCOc1ccc(-c2ccc(-c3cc(C(=O)O)c4cc(F)ccc4n3)nn2)cc1 [Cpd5, 2-(6-(4-ethoxyphenyl)pyridazin-3-yl)-6-fluoroquinoline-4-carboxylic acid]",–,4.75,> 10
"CCOc1cccc(-c2cnc(-c3cc(C(=O)O)c4cc(F)ccc4n3)nc2)c1 [Cpd6, 2-(5-(3-ethoxyphenyl)pyrimidin-2-yl)-6-fluoroquinoline-4-carboxylic acid]",–,1.82,> 10
"CCOc1cccc(-c2ccc(-c3cc(C(=O)O)c4cc(F)ccc4n3)nn2)c1 [Cpd7, 2-(6-(3-ethoxyphenyl)pyridazin-3-yl)-6-fluoroquinoline-4-carboxylic acid]",–,0.605,> 10

# Source: US12662460B2, “Compositions for use for the inhibition of dihydroorotate dehydrogenase” (OHIO STATE INNOVATION FOUNDATION, priority 2019, dated 2026)
